Results reported in patent US20230096781A1, “METHODS OF CONTROLLING BODYWEIGHT BY MODULATING PHOSPHATIDYLINOSITOL 5-PHOSPHATE 4-KINASE BETA ACTIVITY” (University of Cincinnati, priority 2020, published 2023).
Where a chain is given by its changes, count along the chain named. Several values for one entry are separate records, joined by “and”; a condition that tells them apart may be missing. Equal values may be shown once.

Columns and labels:
PI5P4Kβ [1] = molecular target: T1, PI5P4Kβ (Homo sapiens, UniProt P78356); test: NMR-based PNT hydrolysis assay; type: biochemical; details: WT PI5P4Kβ
T1 sequence (P78356 1-416): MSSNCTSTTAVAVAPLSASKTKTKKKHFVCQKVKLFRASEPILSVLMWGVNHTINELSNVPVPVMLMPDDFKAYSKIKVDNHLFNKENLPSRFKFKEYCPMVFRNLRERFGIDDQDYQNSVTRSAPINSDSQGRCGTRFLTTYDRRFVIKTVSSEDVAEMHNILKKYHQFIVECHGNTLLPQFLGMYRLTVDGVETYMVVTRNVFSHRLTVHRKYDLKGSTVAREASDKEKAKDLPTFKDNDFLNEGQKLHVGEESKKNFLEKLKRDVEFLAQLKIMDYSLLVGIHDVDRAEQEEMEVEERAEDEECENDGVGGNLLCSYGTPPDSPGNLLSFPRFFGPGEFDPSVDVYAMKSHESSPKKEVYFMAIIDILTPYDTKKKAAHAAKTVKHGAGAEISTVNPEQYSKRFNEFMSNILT
Procedure: (A) The PNT hydrolysis activity of PI5P4Kβ. indicative of the kinase activity of PI5P4Kβ. was assessed by the signal intensity ratios of diphosphorylated/triphosphorylated nucleotides after the reaction. The average values from three experiments are shown with error bars (SD). Highly hydrolyzed nucleotides (>0.1 of the ratios) were shown for GTP, ITP, XTP, 6-thio-GTP, and 2a-ATP. (B), (C), and (D) show interactions of the PI5P4Kβ-ITP, PI5P4Kβ-XTP, and PI5P4Kβ-2a-ATP complexes, respectively. Dotted lines represent hydrogen bonds between the PNTs and PI5P4Kβ.
(§1) Next, the mechanism of the GTP preference of PI5P4Kβ was investigated using a series of ATP and GTP analogs. Based on analysis of the GTP-PI5P4Kβ interaction (FIG. 10(B)), 10 PNTs with different configurations at the 2nd and 6th positions of the purine base (NH2(2) and O(6) in guanine base, respectively) were chosen (FIG. 10(A)). The hydrolysis activities of PI5P4Kβ for these PNTs were quantified by an NMR-based assay (data not shown). […] On the other hand, O(6) seems to be required for the activity. […] This view is also supported by the larger energetic contribution of the O(6) moiety compared to the NH2(2) moiety in the FMO interaction analysis between GTP and PI5P4Kβ (FIG. 15).

PI5P4KβT201M [2] = molecular target: T2, PI5P4KβT201M (Homo sapiens, UniProt P78356, T201M); test: PNT hydrolysis activity of mutant PI5P4Kβ; type: biochemical
T2 sequence (P78356 1-416 T201M): T1 sequence (P78356 1-416) with T201M

PI5P4KβN203D = molecular target: T3, PI5P4KβN203D (Homo sapiens, UniProt P78356, N203D); test: PNT hydrolysis activity of mutant PI5P4Kβ; type: biochemical
T3 sequence (P78356 1-416 N203D): T1 sequence (P78356 1-416) with N203D
Procedure: (§2) (A)-(C) show PNT hydrolysis activity of mutant PI5P4Kβ as compared to the WT. The ratios of dephosphorylated/triphosphorylated nucleotides after reaction are shown. The N203A activity is almost negligible.
(§3) In addition, the hydrolysis activity of the mutants on four active triphosphorylated nucleotides were analyzed, XTP, ITP, 6-thio-GTP, and 2a-ATP. […] In the crystal structure of the PI5P4KβN203D-ITP complex, ITP binds in a similar manner as the WT.

PI5P4KβF205L [3] = molecular target: T4, PI5P4KβF205L (Homo sapiens, UniProt P78356, F205L); test: PNT hydrolysis activity of mutant PI5P4Kβ; type: biochemical
T4 sequence (P78356 1-416 F205L): T1 sequence (P78356 1-416) with F205L
Procedure: as §2, §3

PI5P4Kβ [4] = molecular target: T1, PI5P4Kβ; test: Competition assay of 32P-GTP-dependent PI(5)P phosphorylation by cold PNTs; type: biochemical; details: 250 μM 32P-GTP, 3.2-400 μM cold PNT
Procedure: (A) The kinase reaction was carried out in a total of 50 μl of reaction buffer (50 mM HEPES (pH 7.4), 0.2 mM EGTA, and 10 mM MgCl2) containing 20 μM of PI(5)P (d-myo-phosphatidylinositol 5-phosphate diC16) that was suspended by sonication. 250 μM of γ-^32P radiolabeled GTP was incubated with 1 μg of recombinant PI5P4Kβ for 10 min at room temperature. 20 μM of PI(5)P was used with 3 μM 1,2-dipalmitoyl-phosphatidylserine as the basal lipid. Phosphoinositides were extracted by a methanol/chloroform (1/1, v/v) mix and subjected to a thin-layer chromatography (TLC) assay using heat-activated 2% […] silica gel 60 plates. The solvent was 1-propanol/2 M acetic acid (65/35, v/v). In competition assay, 250 μM of ^32P-labeled GTP was mixed with 3.2-400 μM triphosphorylated nucleotides, and the PI(5)P phosphorylation by GTP was monitored by quantifying the amount of radiolabeled PI(4,5)P2. (B) Relative kinase activities in the presence of each PNT against those without them (i.e., only ^32P-GTP condition) are shown.
as §1

PI5P4KβF205L [5] = molecular target: T4, PI5P4KβF205L; details: F205L mutant; partly reported in Sumita et al., 2016; cited from earlier work
PI5P4KβT201M [6] = molecular target: T2, PI5P4KβT201M; details: T201M mutant; partly reported in Sumita et al., 2016; cited from earlier work
[7] = test system: PI5P4Kβ with mutation of Asn-203; test: Nucleotide binding of Asn-203 mutant PI5P4Kβ
Procedure: The functional role of Asn-203 was analyzed, because this is the only invariant residue in the base-recognition loop of PI4P5K and PI5P4K.

PI5P4Kβ [8] = molecular target: T1, PI5P4Kβ; details: KM for GTP; cited from earlier work
[9] = test system: WT-PI5P4Kβ-expressing Pip4K2b^−/− cells; test: Lysotracker staining of serum-starved MEFs (lysosomal acidification); type: cell-based, mouse
[10] = test system: isogenic Pip4K2b^−/− cells; test: as above; type: cell-based, mouse; details: 10 μM MPA or 20 μM Link17
[11] = test system: WT PI5P4Kβ-reconstituted Pip4k2b^−/− cells; test: Cell viability after nigericin treatment; type: cell-based, mouse
Procedure: (§4) Next, treatment with microbial toxin nigericin, a selective K^+/H^+ exchanger that is activated in the lysosome and induces lysosome rupture and following cell death, was assessed. […] The autophagic flux in MEF, 293T, and HCT116 cells was decreased by Link17 treated cells (FIG. 7(A),(B)). In the isogenic MEFs, autophagy was decreased in Pip4k2b^−/− and F205L cells, compared to WT cells (FIG. 7(C)).

[12] = test system: WT PI5P4Kβ-reconstituted Pip4k2b^−/− cells; test: Nigericin-induced vacuolization; type: cell-based, mouse; details: within 4h after nigericin treatment
Procedure: as §4

Pip4k2b^−/− cells = test: Nigericin-induced vacuolization; type: cell-based, mouse; details: within 4h after nigericin treatment
Procedure: (D) is a graph showing cytotoxic death by nigericin was suppressed in Pip4K2b^−/− cells and F205L-PI5P4Kβ-expressing Pip4K2b−/− cells.
as §4

Row | hydrolysis activity of PI5P4Kβ (in words) (PI5P4Kβ [1]) | hydrolysis activity compared to WT (PI5P4KβN203D) | hydrolysis activity compared to WT (PI5P4KβF205L [3]) | inhibition of GTP-dependent PI(5)P phosphorylation activity (PI5P4Kβ [4]) | Structure (SMILES) | also measured
1 | very low hydrolysis activity | – | – | – | Nc1nc(Cl)c2ncn(C3OC(COP(=O)(O)OP(=O)(O)OP(=O)(O)O)C(O)C3O)c2n1 (stereo not shown) [2a-6C1-PTP] | –
2 | substantial activity | significantly reduced | not affected | – | Nc1nc(N)c2ncn([C@@H]3O[C@H](COP(=O)(O)OP(=O)(O)OP(=O)(O)O)[C@@H](O)[C@H]3O)c2n1 [2a-ATP] | hydrolysis activity compared to WT (PI5P4KβT201M [2]): more active
3 | substantial activity | – | less active | strongly inhibited | Nc1nc(=S)c2ncn([C@@H]3O[C@H](COP(=O)(O)OP(=O)(O)OP(=O)(O)O)[C@H](O)C3O)c2[nH]1 (stereo partly shown) [6-thio-GTP] | –
4 | – | significantly reduced | not affected | – | Nc1ncnc2c1ncn2[C@@H]1O[C@H](COP(=O)(O)OP(=O)(O)OP(=O)(O)O)[C@@H](O)[C@H]1O [ATP] | hydrolysis activity compared to WT (PI5P4KβT201M [2]): more active; nucleotide-dependent kinase activity (PI5P4KβF205L [5]): comparable to that of WT PI5P4Kβ; nucleotide-dependent kinase activity (PI5P4KβT201M [6]): higher ATP-dependent activity; binding of nucleotide [7]: markedly reduced the binding
5 | – | significantly reduced | less active | – | Nc1nc2c(ncn2[C@@H]2O[C@H](COP(=O)(O)OP(=O)(O)OP(=O)(O)O)[C@@H](O)[C@H]2O)c(=O)[nH]1 [GTP, guanosine triphosphate] | nucleotide-dependent kinase activity (PI5P4KβF205L [5]): reduction of the GTP-dependent activity; nucleotide-dependent kinase activity (PI5P4KβT201M [6]): decreased GTP-dependent kinase activity; binding of nucleotide [7]: markedly reduced the binding; Km (PI5P4Kβ [8]): ~100 µM and ~88 µM
6 | substantial activity | hyperactive | less active | strongly inhibited | O=P(O)(O)OP(=O)(O)OP(=O)(O)OC[C@H]1O[C@@H](n2cnc3c(O)ncnc32)[C@H](O)[C@@H]1O [ITP, inosine triphosphate] | hydrolysis activity compared to GTP (PI5P4Kβ [1]): 1.3 times
7 | – | – | – | – | COc1c(C)c2c(c(O)c1C/C=C(\C)CCC(=O)O)C(=O)OC2 [MPA, mycophenolic acid] | lysosomal acidification (lysotracker staining) ([9]; 10 μM MPA or 20 μM Link17): suppressed lysosomal acidification; lysosomal acidification (lysotracker staining) ([9]; 10 μM MPA or 20 μM Link17, listed as mycophenolic acid): had a deacidification effect; lysosomal acidification (lysotracker staining) [10]: not
8 | very low hydrolysis activity | – | – | – | COc1nc(N)nc2c1ncn2[C@@H]1O[C@H](COP(=O)(O)OP(=O)(O)OP(=O)(O)O)[C@@H](O)[C@H]1O [O6-me-GTP] | –
9 | substantial activity | significantly reduced | diminished susceptibility | strongly inhibited | O=c1[nH]c(=O)c2ncn([C@@H]3O[C@H](COP(=O)(O)OP(=O)(O)OP(=O)(O)O)[C@@H](O)[C@H]3O)c2[nH]1 [XTP, xanthosine triphosphate] | hydrolysis activity compared to GTP (PI5P4Kβ [1]): 1.9 times
10 | – | – | – | – | CO[C@@H]1C[C@@H](C[C@H]2CC[C@H](C)[C@H]([C@@H](C)C(=O)O)O2)O[C@]2(O[C@](C)([C@H]3CC[C@@](C)([C@@H]4O[C@@H]([C@H]5O[C@@](O)(CO)[C@H](C)C[C@@H]5C)C[C@@H]4C)O3)C[C@H]2C)[C@@H]1C [nigericin] | cell viability [11]: decreased cell viability; hypervacuolization after nigericin treatment [12]: hypervacuolization was observed; hypervacuolization after nigericin treatment (Pip4k2b^−/− cells): not
